# Assay results published in US5646188A, “Polyamine derivatives of 1-aminoindan” (priority 1995, dated 1997).
# Like-named read-outs stand apart in the source and are kept apart here.
# What was measured:
# [1] = system: pyramidal neurons throughout the CA1 layer of the anterior hippocampus; assay: Global Brain Ischemia In Gerbils; type: in vivo, mongolian gerbils; settings: Meriones unguiculatus, Pyramidal neuron, 336 h, read-out: PERCENT PROTECTION
# Protocol: Male mongolian gerbils, aged 2.5-5 months, housed 4-8 in a cage, were supplied freely with food and water and maintained at 24° C. with a 12 hour day/night cycle.
# For surgery the animals were anesthetized with halothane (1.5% in 100% O2) and the common carotid arteries exposed bilaterally through a midline ventral neck incision. Each artery was clamped for 5 minutes with aneurysm clips to produce global brain ischemia. The anesthesia was discontinued upon clamping. After 5 minutes the clamps were removed and the wound closed with skin clips.
# For treatment, the test compound or vehicle was injected intra-peritoneally(ip) in a volume of 50 microlitres of solvent per 10 g body weight. The first injection was given two minutes after clamp removal, and thereafter daily for the next 2 post-operative days (total of 3 injections).
# Seven groups each of 4-8 animals were compared:
# I. Control; (sham- or unoperated and saline treated),
# II. Vehicle treated, unoperated (when solvent is other than saline),
# III. Ischemia--untreated or saline treated),
# IV. Ischemia--vehicle treated (when solvent is other than saline),
# V. Ischemia--Test compound treated, one sub-group per concentration tested,
# VI. Ischemia and pentobarbital (40 mg/kg) as positive control).
# Analysis of neuronal damage was performed 14 days post-ischemia by counting pyramidal neurons throughout the CA1 layer of the anterior hippocampus in […] thick (paraffin) coronal brain sections stained with hematoxylin and erosin.
# Percent Protection values represent the fraction of hippocampi protected from ischemia in a group of animals treated with the stated dose of compound.
# [2] = system: Cultures of Dissociated Neonatal Rat Cerebellum; assay: Reversal of NMDA Induced Cell Death in cultures of dissociated neonatal rat cerebellum; type: cell-based; settings: for PERCENT PROTECTION: cell survival minus the NMDA effect (30%); for viability at 0.005 µM: 0.005 μM + NMDA (1 mM, 3 hours); for viability at 0.1 µM: 0.100 μM + NMDA (1 mM, 3 hours); for viability at 1 µM: 1.000 μM + NMDA (1 mM, 3 hours)
# Protocol: (§1) The cerebellum was aseptically dissociated from 6 or 7-day old rat pups and placed in a 15 ml sterile plastic conical tube containing 3 ml of Dulbecco's modified Eagle's medium (DMEM) with a high glucose concentration ([…]) and 2 mM (v/v) L-glutamine and an antibiotic antimitotic mixture. The cerebella were then dissociated after 20-25 passages through a sterile 13 gauge, 10 cm long stainless steel needle attached to a 5 ml syringe with an inserted 45 micrometer pore nylon sieve. The dissociated cells were centrifuged at 200 g for 5 minutes.
# Cells were plated at a density of 200/mm^2 on poly-L-lysine coated surfaces. […] The plated cells were covered with enriched medium and incubated at 37° C. in an atmosphere of 5% CO2 in air and 97% humidity. […] Each test compound was tested in duplicate. Toxic-dose response was determined for each compound over a range from 0.005-1000 micromole. Four groups were run in each set of experiments;
# I. Control, consisting of enriched media alone,
# II. N-methyl-D-aspartate (NMDA, 1 mM for 3 hours) as the cytotoxic challenge,
# III. Test compound plus NMDA, and
# IV. Positive control, spermine, spermidine or putrescine (0.01 micromoles) plus NMDA.
# Surviving cells in Culture are measured relative to control (100%) as described above. Percent protection is the Cell Survival for the test compound minus the NMDA effect. […] The Effective Protection was calculated as the percent of the Percent Protection (X) divided by the maximal protection value (e.g. X×100/70).
# in vitro = settings: rat, cerebellum cell culture
# Protocol: as §1, with “minutes. […] Cell viability was determined by the tryptan blue exclusion test.” for “minutes.”
# Cells were plated at a density of 200/mm^2 on poly-L-lysine coated surfaces. Poly-L-lysine coated glass coverslips were prepared at least one hour in advance of plating by immersing sterile coverslips in sterile distilled water solution containing 15 microgram/ml poly-L-lysine, and washing in sterile water just prior. to use. […] After three days in culture, the media was replaced with media containing the desired test compound. Each test compound was tested in duplicate. Toxic-dose response was determined for each compound over a range from 0.005-1000 micromole. Four groups were run in each set of experiments;
# Nerve cell survival was evaluated by phase contrast microscopy and tryptan blue staining after 24 hours.
# Toxic dose-response curves were compiled using the protocol described above.
# [3] = system: ischemia induced nerve cell death; settings: gerbils; Gilad G et al.; cited from earlier work
# [4] = ip, 10.0 mg/kg ip, 3 daily injections, 14 days post-ischemia, fraction of hippocampi protected
# [5] = Rattus norvegicus, 24 hours, read-out: SURVIVING CELL IN CULTURE (relative to control, 100%)
# [6] = Rattus norvegicus, 0.010 μM + NMDA (1 mM, 3 hours), 24 hours, read-out: SURVIVING CELL IN CULTURE (relative to control, 100%)
# [7] = ip, 1.0 mg/kg ip, 3 daily injections, 14 days post-ischemia, fraction of hippocampi protected
# [8] = positive control, 0.01 micromoles + NMDA
Structure (SMILES),"responders at 10 mg/kg [1, 4] [%]",PERCENT PROTECTION ([2]; 0.005 μM + NMDA) [%],PERCENT PROTECTION ([2]; 0.010 μM + NMDA) [%],PERCENT PROTECTION ([2]; 0.100 μM + NMDA) [%],"viability at 0.005 µM [2, 5] [%]","viability at 0.01 µM [2, 6] [%]","viability at 0.1 µM [2, 5] [%]",CC50 at 24 h (in vitro) [µM],"responders at 1 mg/kg [1, 7] [%]",other results
"NCCCCN(CCCCN)C1CCc2ccccc21 (racemic) [Compound 2711, racemic N,N-di(4-amino-n-butyl)-1-aminoindan]",86,44,38,32,74,68,62,60,,responders at 1 mg/kg ([1]; ip): 50%
"N[C@@H]1C[C@@H](N)c2ccccc21 (relative stereo) [Compound 2716, trans 1,3-diaminoindan]",0,35,0,-5,65,30,25,0.7,50,"PERCENT PROTECTION ([2]; 1.000 μM + NMDA): 0%; viability at 1 µM [2, 5]: 30%"
"N[C@@H]1CCc2ccccc21 [(R)-1-aminoindan, reference compound]",,50,0,-2,,,,175,,responders at 0.1 mg/kg ([1]; ip): 25%; responders at 1 mg/kg ([1]; ip): 25%; responders at 10 mg/kg ([1]; ip): 25%
"N[C@H]1CCc2ccccc21 [(S)-1-aminoindan, reference compound]",,,,,,,,,,responders at 0.1 mg/kg ([1]; ip): 0%; responders at 1 mg/kg ([1]; ip): 50%; responders at 10 mg/kg ([1]; ip): 75%
"NCCCNC1CCc2ccccc21 (centres unmarked) [Compound 2709, N-(3-aminopropyl)-1-aminoindan]",31,-4,23,29,26,53,59,50,12,"PERCENT PROTECTION ([2]; 1.000 μM + NMDA): 13%; PERCENT PROTECTION ([2]; 10.00 μM + NMDA): 8%; viability at 1 µM [2, 5]: 43%; viability at 10 µM ([2]; Rattus norvegicus, 10.00 μM + NMDA (1 mM, 3 hours), 24 hours, read-out: SURVIVING CELL IN CULTURE (relative to control, 100%)): 38%"
NCCCCNC1CCc2ccccc21 (centres unmarked) [Compound 2710],37,,,42,,,72,30,25,"PERCENT PROTECTION ([2]; 1.000 μM + NMDA): 40%; viability at 1 µM [2, 5]: 70%"
"N[C@@H]1C[C@H](N)c2ccccc21 [Compound 2715, cis 1,3-diaminoindan]",50,19,,12,49,,42,10,,"responders at 1 mg/kg ([1]; ip): 75%; PERCENT PROTECTION ([2]; 1.000 μM + NMDA): 2%; viability at 1 µM [2, 5]: 32%"
NCCCCNCCCNC1CCc2ccccc21 (centres unmarked) [Compound 2720],58,42,8,2,72,38,32,0.2,,
NCCCNCCCCNCCCNC1CCc2ccccc21 (centres unmarked) [Compound 2721],67,-2,-4,,28,26,,1,12,
"NCCCCN(CCCN)C1CCc2ccccc21 (centres unmarked) [Compound 2722, N-(4-amino-n-butyl)-N-(3-amino-n-propyl)-1-aminoindan]",25,85,57,,115,87,,20,50,
NCCCNCCCCNC1CCc2ccccc21 (centres unmarked) [Compound 2724],56,65,57,,95,87,,4,12,
NCCCCNCCCNCCCCNC1CCc2ccccc21 (centres unmarked) [Compound 2725],25,42,8,2,72,38,32,20,0,
"NCCCCN(CCCCN)[C@@H]1CCc2ccccc21 [Compound 2726, (R)-N,N-di(4-amino-n-butyl)-1-aminoindan]",50,99,25,,129,55,,1.7,,
"NCCCCN(CCCCN)[C@H]1CCc2ccccc21 [Compound 2727, (S)-N,N-di(4-amino-n-butyl)-1-aminoindan]",28.5,0,25,,30,55,,0.4,,
"NCCCCN(CCCCN)C1CCCc2ccccc21 (centres unmarked) [Compound 2728, N,N-di(4-amino-n-butyl)-1-amino-1,2,3,4-tetrahydronaphthalene]",,-10,56,,20,86,,0.25,,responders at 1 mg/kg ([1]; ip): 20%
"CCCC(C)C1(CC)C(=O)NC(=O)NC1=O (centres unmarked) [Pentobarbital, pentobarbital, reference compound]",,,,,,,,,,responders at 40 mg/kg ([1]; ip): 87.5%
"NCCCCN [Putrescine, putrescine, reference compound]",,,,,,,,300,,"responders at 10 mg/kg ([1]; 10.0 mg/kg ip, 3 daily injections, 14 days post-ischemia, fraction of hippocampi protected): 41%; protecting against ischemia induced nerve cell death [3]: activity; PERCENT PROTECTION [2, 8]: 0%"
"NCCCCNCCCN [Spermidine, spermidine, reference compound]",42,,,,,,,2,,"protecting against ischemia induced nerve cell death [3]: activity; viability at 0.01 µM ([2]; Rattus norvegicus, positive control, 0.01 micromoles + NMDA (1 mM, 3 hours), 24 hours, read-out: SURVIVING CELL IN CULTURE (relative to control, 100%)): 78%; PERCENT PROTECTION [2, 8]: 48%"
